Patent US11198687B2, “Heteroaryl allosteric modulators of nicotinic acetylcholine receptors” (Merck Sharp & Dohme Corp., priority 2017, dated 2021)
Read-outs that look alike come from different tables or passages of the source.

Target: human α7 nAChR (Homo sapiens, UniProt P36544)
Experiment: Automated patch-clamp electrophysiology functional assay (Assay A)
Format: cell-based
Conditions: IonFlux HT whole-cell population patch, HEK cell line stably expressing human RIC-3 and human α7, 40 μM acetylcholine
Experimental: The α7 nAChR positive allosteric modulator (PAM) activity of the present compounds may be tested using assays known in the art. […] The assay was performed using the IonFlux HT in a whole-cell, population patch configuration. See Golden et al. Assay Drug Dev. Technol. (2011) 9:608-619. The compounds were assessed for their ability to modulate the function of the human α7 nAChR stably expressed in a HEK cell line both in the presence, and in the absence of the natural α7 agonist acetylcholine. By performing a series of such measurements at different concentrations, the effective concentration of the α7 nAChR PAMs (EC50) was determined. See Spencer et al. Assay Drug Dev. Technol. (2012) 10:313-324.
Direct activation of α7 (agonism), and potentiation of acetylcholine-evoked α7 currents was determined as follows:
Automated Patch-Clamp Electrophysiology Functional Assay (Assay A)
Automated patch-clamp electrophysiology was performed using the IonFlux HT (Fluxion Biosciences Inc., San Francisco, Calif.) in the whole-cell, population patch configuration. Test compounds were assessed for their ability to modulate the function of the α7 nicotinic acetylcholine receptor both in the presence, and in the absence of the natural α7 agonist acetylcholine. A HEK cell line stably expressing both human RIC-3 and human α7 (PrecisION hnAChR α7/RIC-3, Eurofins Pharma, St. Charles, Mo.) was cultured in 175 cm^2 triple-layer tissue culture flasks to no more than 90% confluency in DMEM/F-12 growth media supplemented with 10% heat-inactivated fetal bovine serum, 1% non-essential amino acids, 0.625 μg/mL Puromycin, and 400 μg/mL Geneticin. Immediately prior to assay, cells were detached by first aspirating growth media, rinsing with Dulbecco's phosphate buffered saline, and then adding 10 mL of Accutase (Innovative Cell Technologies, San Diego, Calif.) to the flask and then incubating at 37° C. for 5 minutes. Detached cells were then recovered by the addition of 40 mL of CHO-serum-free media supplemented with 25 mM HEPES, and rocked gently in a 50 mL conical tube for 20 minutes prior to patch-clamp assay. […] The cell suspension was added to the cell inlet wells on an IonFlux HT population patch plate which had previously been rinsed and primed with deionized H2O. Test compounds were serially diluted in DMSO and then resuspended to the final test concentration in external recording solution, with, or without 40 μM acetylcholine added to the external recording solution; test compounds were then transferred to the lonFlux HT population patch plate. Internal recording solution (110 mM TrisPO4, 28 mM TrisBase, 0.1 mM CaCl2, 2 mM MgCl2, 11 mM EGTA, 4 mM MgATP) was added to the internal recording solution inlet wells on the IonFlux HT patch plate previously loaded with cells and test compounds, and the plate loaded into the IonFlux HT instrument. A protocol was executed on the IonFlux HT to trap the cells, break into the cells, and establish the whole-cell recording configuration; cells were voltage-clamped at a holding potential of −60 mV for the duration of the experiment, all experiments were conducted at room temperature, and the IonFlux HT injection pressure was 8 psi for solution applications. Upon establishing the whole-cell configuration, external recording solution was perfused into the recording chambers for 120 seconds and then 40 μM acetylcholine was applied for 1 second and immediately washed off with external recording solution for 60 seconds. The 40 μM acetylcholine-evoked α7 current served as the current response to which subsequent test compound effects, in the presence, or in the absence of 40 μM acetylcholine would be quantified relative to. Next, test compounds were evaluated at multiple concentrations for their ability to induce, or modulate α7 current responses; three concentrations of test compound were evaluated in ascending dose fashion per recording.

Sequence of human α7 nAChR (P36544 23-502): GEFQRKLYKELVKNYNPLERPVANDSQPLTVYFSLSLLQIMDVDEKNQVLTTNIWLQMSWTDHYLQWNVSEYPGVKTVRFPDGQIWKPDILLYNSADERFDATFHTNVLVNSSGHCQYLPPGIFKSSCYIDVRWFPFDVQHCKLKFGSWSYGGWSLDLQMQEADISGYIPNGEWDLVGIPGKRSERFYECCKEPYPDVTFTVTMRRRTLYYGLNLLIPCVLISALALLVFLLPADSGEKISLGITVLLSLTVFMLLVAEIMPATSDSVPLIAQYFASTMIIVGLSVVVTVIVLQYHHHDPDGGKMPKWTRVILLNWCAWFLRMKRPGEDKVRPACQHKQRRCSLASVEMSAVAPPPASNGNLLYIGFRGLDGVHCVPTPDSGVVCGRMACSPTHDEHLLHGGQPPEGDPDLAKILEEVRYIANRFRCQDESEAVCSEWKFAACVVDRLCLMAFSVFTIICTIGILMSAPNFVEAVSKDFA

EC50 (read-out: α7 nAChR Potency) [nM] | EC50 (read-out: α7 nAChR EC50) [nM] | Compound
500 to 5000 | – | CC1(C)[C@H](c2ccc(S(N)(=O)=O)cn2)[C@H]1c1nc(-c2ccccc2)no1 [Example E3, 6-[(1R,3R)-2,2-Dimethyl-3-(3-phenyl-1,2,4-oxadiazol-5-yl)cyclopropyl]pyridine-3-sulfonamide]
500 to 5000 | 1100 | CC1(C)C(c2ccc(S(N)(=O)=O)nc2)C1c1cc(-c2cccc(F)c2)on1 (single isomer, unassigned) [Example C13, 5-{trans-3-[5-(3-Fluorophenyl)isoxazol-3-yl]-2,2-dimethylcyclopropyl}pyridine-2-sulfonamide]
500 to 5000 | 1200 | CC1(C)[C@@H](c2ccc(S(N)(=O)=O)nc2)[C@@H]1c1noc(-c2c(F)cccc2F)n1 (racemic) [Example C12, 5-{trans-3-[5-(2,6-Difluorophenyl)-1,2,4-oxadiazol-3-yl]-2,2-dimethylcyclopropyl}pyridine-2-sulfonamide]
500 to 5000 | 1500 | CC1(C)[C@@H](c2ccc(S(N)(=O)=O)nc2)[C@@H]1c1ncc(-c2ccccc2)o1 [Example 8, 5-[(1S,3S)-2,2-Dimethyl-3-(5-phenyl-1,3-oxazol-2-yl)cyclopropyl]pyridine-2-sulfonamide]
5000 to 50000 | 5100 | CC1(C)C(c2ccc(S(N)(=O)=O)nc2)C1c1nc2ccccc2o1 (racemic) [Example C4, 5-[trans-3-(1,3-Benzoxazol-2-yl)-2,2-dimethylcyclopropyl]pyridine-2-sulfonamide]
500 to 5000 | 2100 | CC1(C)[C@@H](c2ccc(S(N)(=O)=O)nc2)[C@@H]1c1noc(C2CCCCC2)n1 (racemic) [Example C10, 5-[trans-3-(5-Cyclohexyl-1,2,4-oxadiazol-3-yl)-2,2-dimethylcyclopropyl]pyridine-2-sulfonamide]
500 to 5000 | 920 | CC1(C)[C@@H](c2ccc(S(N)(=O)=O)nc2)[C@@H]1c1noc(C2CCCC2)n1 (racemic) [Example C2, 5-[trans-3-(5-Cyclopentyl-1,2,4-oxadiazol-3-yl)-2,2-dimethylcyclopropyl]pyridine-2-sulfonamide]
500 to 5000 | 1700 | COc1ccc(Cl)cc1-c1noc([C@H]2[C@H](c3ccc(S(N)(=O)=O)nc3)C2(C)C)n1 [Example B2, 5-{(1S,3S)-3-[3-(5-Chloro-2-methoxyphenyl)-1,2,4-oxadiazol-5-yl]-2,2-dimethylcyclopropyl}pyridine-2-sulfonamide]
100 to 500 | 380 | CC1(C)[C@@H](c2ccc(S(N)(=O)=O)nc2)[C@@H]1c1nc(-c2ccccc2)no1 [Example 3, 5-[(1S,3S)-2,2-Dimethyl-3-(3-phenyl-1,2,4-oxadiazol-5-yl)cyclopropyl]pyridine-2-sulfonamide]
500 to 5000 | 2500 | CC1(C)[C@@H](c2ccc(S(N)(=O)=O)nc2)[C@@H]1c1nc(-c2cncc(C(F)(F)F)c2)no1 [Example B4, 5-[(1S,3S)-2,2-Dimethyl-3-{3-[5-(trifluoromethyl)pyridin-3-yl]-1,2,4-oxadiazol-5-yl}cyclopropyl]pyridine-2-sulfonamide]
500 to 5000 | – | CC(C)c1noc([C@H]2[C@H](c3ccc(S(N)(=O)=O)cn3)C2(C)C)n1 (racemic) [Example G3, 6-{trans-2,2-Dimethyl-3-[3-(propan-2-yl)-1,2,4-oxadiazol-5-yl]cyclopropyl}pyridine-3-sulfonamide]
500 to 5000 | 1500 | COc1ccc(Cl)cc1-c1noc([C@@H]2[C@@H](c3ccc(S(N)(=O)=O)nc3)C2(C)C)n1 [Example A6, 5-{(1R,3R)-3-[3-(5-Chloro-2-methoxyphenyl)-1,2,4-oxadiazol-5-yl]-2,2-dimethylcyclopropyl}pyridine-2-sulfonamide]
500 to 5000 | 3200 | CC1(C)[C@H](c2ccc(S(N)(=O)=O)nc2)[C@H]1c1ncc(C2CCCC2)o1 [Example A4, 5-[(1R,3R)-3-(5-Cyclopentyl-1,3-oxazol-2-yl)-2,2-dimethylcyclopropyl]pyridine-2-sulfonamide]
500 to 5000 | – | CC1(C)[C@H](c2ccc(S(N)(=O)=O)nc2)[C@H]1c1nc(-c2ccc(F)cc2F)no1 [Example A8, 5-{(1R,3R)-3-[3-(2,4-Difluorophenyl)-1,2,4-oxadiazol-5-yl]-2,2-dimethylcyclopropyl}pyridine-2-sulfonamide]
100 to 500 | 310 | CC1(C)[C@@H](c2ccc(S(N)(=O)=O)nc2)[C@@H]1c1nc(-c2cccc(F)c2)no1 [Example B1, 5-{(1S,3S)-3-[3-(3-Fluorophenyl)-1,2,4-oxadiazol-5-yl]-2,2-dimethylcyclopropyl}pyridine-2-sulfonamide]
500 to 5000 | 1100 | CC1(C)[C@@H](c2ccc(S(N)(=O)=O)cn2)[C@@H]1c1nc(-c2cccc(F)c2)no1 [Example F1, 6-{(1S,3S)-3-[3-(3-Fluorophenyl)-1,2,4-oxadiazol-5-yl]-2,2-dimethylcyclopropyl}pyridine-3-sulfonamide]
100 to 500 | 370 | CC1(C)[C@@H](c2ccc(S(N)(=O)=O)nc2)[C@@H]1c1nc(C2CCCC2)no1 [Example B7, 5-[(1S,3S)-3-(3-Cyclopentyl-1,2,4-oxadiazol-5-yl)-2,2-dimethylcyclopropyl]pyridine-2-sulfonamide]
500 to 5000 | 990 | CC1(C)[C@@H](c2ccc(S(N)(=O)=O)nc2)[C@@H]1c1noc(-c2ccccc2)n1 (relative stereo) [Example 11, 5-[trans-2,2-Dimethyl-3-(5-phenyl-1,2,4-oxadiazol-3-yl)cyclopropyl]pyridine-2-sulfonamide]
500 to 5000 | 3400 | Cc1nc(S(N)(=O)=O)ccc1[C@@H]1C[C@H]1c1nc(-c2ccccc2)no1 (relative stereo) [Example 5, 6-Methyl-5-[trans-2-(3-phenyl-1,2,4-oxadiazol-5-yl)cyclopropyl]pyridine-2-sulfonamide]
500 to 5000 | 1500 | CC1(C)[C@@H](c2ccc(S(N)(=O)=O)nc2)[C@@H]1c1ncc(C2CCCC2)s1 [Example B16, 5-[(1S,3S)-3-(5-Cyclopentyl-1,3-thiazol-2-yl)-2,2-dimethylcyclopropyl]pyridine-2-sulfonamide]
100 to 500 | 480 | CC1(C)[C@@H](c2ccc(S(N)(=O)=O)cn2)[C@@H]1c1nc(C2CCCCC2)no1 [Example 10, 6-[(1S,3S)-3-(3-Cyclohexyl-1,2,4-oxadiazol-5-yl)-2,2-dimethylcyclopropyl]pyridine-3-sulfonamide]
500 to 5000 | – | CC1(C)[C@H](c2ccc(S(N)(=O)=O)nc2)[C@H]1c1nc(-c2cccc(C(F)(F)F)c2)no1 [Example A10, 5-[(1R,3R)-2,2-Dimethyl-3-{3-[3-(trifluoromethyl)phenyl]-1,2,4-oxadiazol-5-yl}cyclopropyl]pyridine-2-sulfonamide]
500 to 5000 | 590 | CC1(C)[C@@H](c2nc(-c3ccccc3)no2)[C@@H]1c1ncc(S(N)(=O)=O)s1 [Example 6, 2-[(1S,3S)-2,2-dimethyl-3-(3-phenyl-1,2,4-oxadiazol-5-yl)cyclopropyl]-1,3-thiazole-5-sulfonamide]
500 to 5000 | 1700 | CC1(C)[C@@H](c2ccc(S(N)(=O)=O)cn2)[C@@H]1c1nc(-c2ccc(F)cc2F)no1 [Example F5, 6-{(1S,3S)-3-[3-(2,4-Difluorophenyl)-1,2,4-oxadiazol-5-yl]-2,2-dimethylcyclopropyl}pyridine-3-sulfonamide]

Compound | EC50 (read-out: α7 nAChR Potency) [nM] | EC50 (read-out: α7 nAChR EC50) [nM]
6-[trans-3-(1,3-Benzoxazol-2-yl)-2,2-dimethylcyclopropyl]pyridine-3-sulfonamide [Example G1] | 500 to 5000 | 900
